Tests used:
cathepsin G = target: T1, cathepsin G (Homo sapiens, UniProt P08311); test: Cathepsin G activity in a cell-free assay (Suc-AAPF-pNA substrate); format: biochemical; settings: for IC50: purified cathepsin G from human neutrophils, read-out: Cat. G IC50 (converted); for remaining activity at 10 µM: read-out: Cat. G Activity [% Control]
T1 construct: purified cathepsin G (0.2 µg) from human neutrophils; purchased Calbiochem; host or cells: human neutrophils (natural source)
T1 sequence (P08311 21-244 limits assumed): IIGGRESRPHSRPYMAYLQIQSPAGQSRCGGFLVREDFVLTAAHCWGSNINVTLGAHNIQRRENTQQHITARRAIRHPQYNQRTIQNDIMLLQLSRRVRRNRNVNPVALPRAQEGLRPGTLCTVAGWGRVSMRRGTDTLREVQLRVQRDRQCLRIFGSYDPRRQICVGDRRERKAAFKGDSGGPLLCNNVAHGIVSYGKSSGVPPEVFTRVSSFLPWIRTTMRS
Method: Commercially available purified cathepsin G (0.2 µg) from human neutrophils (Calbiochem, La Jolla, CA, USA) was mixed with test compounds or DMSO (vehicle control) in 200 µL 0.1 M HEPES pH 7.4, 0.5 M NaCl, and 10% DMSO in a 96-well plate (Greiner Bio-One, Frickenhausen, Germany) and pre-incubated for 20 min at 25 °C. Then, N-Suc–Ala–Ala–Pro–Phe–pNA (Suc–AAPF–pNA) (1 mM) as substrate for cathespin G was added, and the absorbance was measured at 410 nm at 25 °C using a Victor^2 plate reader (PerkinElmer, Waltham, MA, USA).

5-LO [1] = target: T2, 5-LO (Homo sapiens, UniProt P09917); test: 5-LO activity in a cell-free assay (isolated human recombinant 5-LO, 20 µM arachidonic acid); format: biochemical; design: made in house; host or cells: Escherichia coli BL21 (pT3-5-LO plasmid); settings: residual activity at 10 µM, isolated 5-LO, 20 µM arachidonic acid, mean ± SEM, 3–4 experiments
T2 sequence (P09917 1-674): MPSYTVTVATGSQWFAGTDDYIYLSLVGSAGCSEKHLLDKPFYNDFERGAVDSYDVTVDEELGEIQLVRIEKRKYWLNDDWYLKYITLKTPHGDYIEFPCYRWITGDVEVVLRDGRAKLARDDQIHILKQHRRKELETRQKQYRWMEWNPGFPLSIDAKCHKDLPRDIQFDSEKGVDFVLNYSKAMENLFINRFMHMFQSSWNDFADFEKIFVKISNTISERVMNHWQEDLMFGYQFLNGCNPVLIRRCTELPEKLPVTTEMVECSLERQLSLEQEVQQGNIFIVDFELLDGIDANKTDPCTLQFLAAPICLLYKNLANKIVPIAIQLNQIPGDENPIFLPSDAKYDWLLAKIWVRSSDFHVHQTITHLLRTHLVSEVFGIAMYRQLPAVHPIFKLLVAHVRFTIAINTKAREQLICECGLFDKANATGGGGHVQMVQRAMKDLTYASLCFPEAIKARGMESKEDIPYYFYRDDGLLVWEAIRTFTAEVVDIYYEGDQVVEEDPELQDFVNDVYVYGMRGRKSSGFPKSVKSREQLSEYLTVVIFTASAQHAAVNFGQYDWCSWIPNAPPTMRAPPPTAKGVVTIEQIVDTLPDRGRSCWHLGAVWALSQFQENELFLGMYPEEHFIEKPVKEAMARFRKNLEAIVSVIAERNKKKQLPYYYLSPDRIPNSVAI
Method: Human recombinant 5-LO was expressed in Eschericha coli BL21 transformed with pT3-5-LO plasmid at 30 °C overnight, as described elsewhere. Cells were lysed in lysis buffer containing triethanolamine (50 mM, pH 8.0), EDTA (5 mM), phenylmethanesulfonyl fluoride (1 mM), soybean trypsin inhibitor (60 µg/mL), dithiothreitol (2 mM), and lysozyme (1 mg/mL), and homogenized by sonification (3 × 15 s). 5-LO was then purified from 40,000× g supernatant (20 min, 4 °C) using an ATP-agarose column (Sigma-Aldrich, Deisenhofen, Germany), diluted with PBS buffer containing 1 mM EDTA, and immediately used for 5-LO activity assays.
To determine 5-LO activity, aliquots of purified 5-LO (0.5 µg 5-LO in 1 mL PBS plus 1 mM EDTA) were pre-incubated with the test compounds or vehicle (0.1% dimethyl sulfoxide, DMSO) on ice for 15 min, pre-warmed for 30 s at 37 °C in a water bath, and then stimulated with 20 µM AA and CaCl2 2 mM for 10 min at 37 °C. The reaction was stopped with one volume of ice-cold methanol and 5-LO products (including all-trans-isomers of LTB4 and 5-hydroperoxyeicosatetraenoic acid (5-HpETE), as well as its corresponding alcohol 5-hydroxyeicosatetraenoic acid (5-HETE)) were analyzed by reversed phase (RP)-HPLC (Elite LaChrom, VWR, Radnor, PA, USA) as previously described. In brief, acidified PBS and 200 ng of internal PGB1 standard were added and solid phase extraction using C18 RP-columns (100 mg, UCT, Bristol, PA, USA) was performed. After elution with methanol, samples were analyzed by RP-HPLC using a C-18 Radial-PAK column (Waters, Eschborn, Germany).

5-LO [2] = target: T2, 5-LO; test: 5-LO product formation in intact human neutrophils stimulated with A23187 (cell-based); design: 5-LO product formation in intact human neutrophils; endogenous in cells; host or cells: freshly isolated human peripheral blood neutrophils; settings: human neutrophils; for remaining activity at 10 µM: read-out: 5-LO Activity [% Control] cell-based
Method: Neutrophils were isolated from peripheral blood (University Hospital Tübingen, Germany), collected from fasted healthy adult donors that were informed about the aim of the study and gave written consent. Leukocyte concentrates were obtained by centrifugation (4000× g, 20 min, 20 °C) of heparinized blood preparation, and neutrophils were immediately isolated as described before. Briefly, leukocyte concentrates were subjected to dextran sedimentation and centrifuged on lymphocyte separation medium (LSM 1077, PAA, Coelbe, Germany). For isolation of pelleted neutrophils, remaining erythrocytes were removed by hypotonic lysis, washed twice with ice-cold phosphate-buffered saline (PBS) and finally resuspended in PBS buffer containing 0.1% glucose and CaCl2 (1 mM) (PGC buffer).
5-LO product formation in intact human neutrophils was performed using 5 × 10^6 freshly isolated cells that were resuspended in 1 mL PGC buffer. Cells were pre-incubated with the test compounds or vehicle (0.1% DMSO) at 37 °C for 15 min prior to stimulation with 2.5 µM Ca^2+-ionophore A23187 for 10 min (37 °C). 5-LO product formation was stopped by addition of one volume of ice-cold methanol, samples were subjected to solid phase extraction after addition of 200 ng PGB1 as internal standard, and 5-LO products (LTB4, its trans-isomers and 5-HETE) were analyzed by RP-HPLC as described above.

[3] = residual activity at 10 µM, cell-free, mean ± SEM, 3–4 experiments
[4] = residual activity at 10 µM, A23187, mean ± SEM, 3–4 experiments

Row | SMILES | IC50 (cathepsin G; cell-free) [µM] | remaining activity at 10 µM (cathepsin G; [3]) [%] | 5-LO Activity [% Control] cell-free (5-LO [1]) | 5-LO Activity [% Control] cell-based (5-LO [2]; [4]) | remaining activity at 10 µM (5-LO [1]; read-out: 5-LO Activity [% Control] cell-free) [%] | inhibition at 10 µM (5-LO [2]; at 10 µM, read-out: inhibition of 5-LO activity in intact cells) [%] | remaining activity at 10 µM (5-LO [2]; [4]) [%] | inhibition of cathepsin G (cathepsin G; at 10 µM) | Cat. G Activity [% Control] (cathepsin G; [3])
1 | C[C@H]1[C@H](C)CC[C@]2(C)CC[C@]3(C)C(=CC(=O)[C@@H]4[C@@]5(C)CC[C@@H](OC(=O)CCCC(=O)O)[C@](C)(C(=O)O)[C@@H]5CC[C@]43C)[C@H]12 [compound 25, 3-O-Glutaroyl-11-keto-β-boswellic acid] | 8.6 | 49.1 ± 11 | n.i. | n.i. |  |  |  |  | 
2 | C[C@H]1[C@H](C)CC[C@]2(C)CC[C@]3(C)C(=CC[C@@H]4[C@@]5(C)CC[C@@H](OCC(=O)O)[C@](C)(C(=O)O)[C@@H]5CC[C@]43C)[C@H]12 [compound 26, 3-O-Carboxymethyl-β-boswellic acid] | 3.4 | 28.8 ± 7.4 |  |  | 78.1 ± 7.4 | 42 | 57.6 ± 5.3 |  | 
3 | C[C@H]1[C@H](C)CC[C@]2(C)CC[C@]3(C)C(=CC(=O)[C@@H]4[C@@]5(C)CC[C@@H](OCC(=O)O)[C@](C)(C(=O)O)[C@@H]5CC[C@]43C)[C@H]12 [compound 27, 3-O-Carboxymethyl-11-keto-β-boswellic acid] |  |  | n.i. |  |  |  | 68.4 ± 2.1 | not active | n.i.

Reference: publication PMC6017322, “Triterpene Acids from Frankincense and Semi-Synthetic Derivatives That Inhibit 5-Lipoxygenase and Cathepsin G” (Molecules : A Journal of Synthetic Chemistry and Natural …, 2018)
